The subject of one data set is BV-2. Kind of data set: Inhibition of LPS-induced nitric oxide production in mouse BV2 cells treated for 30 mins prior to LPS stimulation for 24 hrs by Griess assay. Type of data set: functional, cell-based. For orientation: The Griess reaction detects nitrite, a stable product of nitric oxide.
Data set [1] can be described thus: Cytotoxicity against mouse BV2 cells assessed as inhibition of cell viability up to 50 uM by MTT assay. The class given is cell-based. As to conditions: bv-2. A general note: Formazan colour is commonly taken as a measure of viable cells; call rule not given here.
Another data set relates to A549. Kind of data set: Cytotoxicity against human A549 cells assessed as cell growth inhibition after 48 hrs by SRB assay. Type of data set: functional, cell-based. As to conditions: A549, 48 h. On the technique in general: Sulforhodamine B stains cellular protein and so reports cell mass.
The test system of the next data set is SK-OV-3. Kind of data set: Cytotoxicity against human SKOV3 cells assessed as cell growth inhibition after 48 hrs by SRB assay. The class given is functional, cell-based. Conditions: SK-OV-3, 48 h.
The test system of the next data set is SK-MEL-2. Kind of data set: Cytotoxicity against human SK-MEL-2 cells assessed as cell growth inhibition after 48 hrs by SRB assay. The class given is functional, cell-based. As to conditions: SK-MEL-2, 48 h.
For another data set, the system named is HCT-15. Kind of data set: Cytotoxicity against human HCT15 cells assessed as cell growth inhibition after 48 hrs by SRB assay. The class given is functional, cell-based. Conditions: HCT-15, 48 h.
The nature of data set [2]: Antioxidant activity assessed as DPPH radical scavenging activity after 10 mins by spectrophotomteric analysis. The class given is physicochemical.
Data set [3] in a line: Cytotoxicity against mouse BV2 cells assessed as inhibition of cell viability by MTT assay. The class given is cell-based, BV-2. As to conditions: read-out: INH.
In a further data set the test system is RAW264.7. Nature of the data set: Inhibition of LPS-induced nitric oxide production in mouse RAW264.7 cells at 100 uM. The class given is functional.

≈ marks a conversion by molar mass, not a printed value.

The IC50 is the midpoint of a concentration-inhibition curve. `COc1cc(/C=C/C(=O)O[C@H]2[C@H](OC(=O)/C=C/c3cc(OC)c(O)c(OC)c3)[C@@H](CO)O[C@@]2(CO)O[C@H]2O[C@H](COC(=O)/C=C/c3cc(OC)c(O)c(OC)c3)[C@@H](O)[C@H](O)[C@H]2O)ccc1O`: the IC50 worked out at 34.8 µM in the data set with BV-2; 26.9 µM in the data set on A549; 23.8 µM in the data set with SK-OV-3; 16.7 µM in the data set with SK-MEL-2; 18.9 µM in the data set with HCT-15; 23.05 µg/mL (≈ 24.8 µM) in data set [2]. The Activity result in data set [1] is on record as “Non-toxic”.
In the case of `O=C1O[C@H]([C@@H](O)CO)C(O)=C1O` [ASCORBIC ACID], the IC50 in data set [2] was 7.63 µg/mL (≈ 43.3 µM).
With `COc1cc(/C=C/C(=O)OC[C@H]2O[C@H](O[C@]3(CO)O[C@H](CO)[C@@H](OC(=O)/C=C/c4cc(OC)c(O)c(OC)c4)[C@@H]3OC(=O)/C=C/c3cc(OC)c(O)c(OC)c3)[C@H](O)[C@@H](O)[C@@H]2O)cc(OC)c1O`, the IC50 is 48.9 µM in the data set on BV-2; 25.9 µM in the data set with A549; 19.2 µM in the data set with SK-OV-3; 18.6 µM in the data set on SK-MEL-2; 14.1 µM with HCT-15; 27.1 µg/mL (≈ 28.2 µM) in data set [2]. Also, the Activity result in [1] is “Non-toxic”.
Turning to `OC[C@H]1O[C@@](CO)(O[C@H]2O[C@H](CO)[C@@H](O)[C@H](O)[C@H]2O)[C@@H](O)[C@@H]1O` [SUCROSE], the IC50 is greater than 200 µM with BV-2; greater than 30 µM in the data set with A549; greater than 30 µM with SK-OV-3; greater than 30 µM in the data set with SK-MEL-2; greater than 30 µM in the data set on HCT-15; “Not Active” in [2]. Also, in [1], the Activity entry is on record as “Non-toxic”.
Consider `COc1cc(/C=C/C(=O)O[C@H]2[C@H](O)[C@@H](CO)O[C@@]2(CO)O[C@H]2O[C@H](CO)[C@@H](O)[C@H](O)[C@H]2O)cc(OC)c1O`, for which the IC50 in the data set on BV-2 came to 37.4 µM; with A549, 23.9 µM; in the data set on SK-OV-3 it was 20.5 µM; in the data set with SK-MEL-2, 23.9 µM; in the data set with HCT-15, 27 µM; in data set [2], 78.2 µg/mL (≈ 143 µM). Further, the cytotoxicity in data set [3] came to 15%.
Consider `COc1cc(/C=C/C(=O)OC[C@H]2O[C@H](O[C@]3(CO)O[C@H](CO)[C@@H](O)[C@@H]3OC(=O)/C=C/c3ccc(O)c(OC)c3)[C@H](O)[C@@H](O)[C@@H]2O)ccc1O`, for which the IC50 is 45.5 µM in the data set on BV-2; greater than 30 µM with A549; 20 µM in the data set with SK-OV-3; 27.9 µM with SK-MEL-2; 17.8 µM with HCT-15; 35.33 µg/mL (≈ 50.9 µM) in data set [2]. Further, in data set [1], the Activity entry is reported as “Non-toxic”.
One may read the inhibition as how much of the control response was suppressed. High values mean a response far below the control, low ones a response near the control. Compound `COc1cc(/C=C/CO[C@@H]2O[C@H](CO)[C@@H](O)[C@H](O)[C@H]2O)ccc1O` returned an inhibition at 100 µM in the data set with RAW264.7 of 50%.
For the compound `COc1cc(/C=C/C(=O)OC[C@H]2O[C@H](O[C@]3(CO)O[C@H](CO)[C@@H](O)[C@@H]3OC(=O)/C=C/c3cc(OC)c(OC)c(OC)c3)[C@H](O)[C@@H](O)[C@@H]2O)cc(OC)c1O`, the IC50 with BV-2 was determined as 27 µM; in the data set on A549, 26 µM; in the data set with SK-OV-3, 24.6 µM; in the data set on SK-MEL-2, 21.6 µM; with HCT-15, 18.3 µM; in data set [2], 54.98 µg/mL (≈ 71.5 µM). For the same compound, the Activity result in data set [1] is recorded as “Non-toxic”.
For `COc1cc(/C=C/C(=O)OC[C@H]2O[C@H](O[C@]3(CO)O[C@H](CO)[C@@H](O)[C@@H]3OC(=O)/C=C/c3cc(OC)c(O)c(OC)c3)[C@H](O)[C@@H](O)[C@@H]2O)cc(OC)c1O`, the IC50 worked out at 37.1 µM with BV-2; 21.1 µM with A549; 16.7 µM with SK-OV-3; 14.2 µM in the data set on SK-MEL-2; 17.2 µM in the data set on HCT-15; 29.63 µg/mL (≈ 39.3 µM) in data set [2]. Further, the Activity result in data set [1] is reported as “Non-toxic”.
As to `OC[C@H]1O[C@@H](OC/C=C/c2ccc(O)cc2)[C@H](O)[C@@H](O)[C@@H]1O`, 100 µM produced 50% inhibition in the data set with RAW264.7.
In the case of `COc1cccc2c1C(=O)c1c(O)c3c(c(O)c1C2=O)C[C@@](O)(C(=O)CO)C[C@@H]3O[C@H]1C[C@H](N)[C@H](O)[C@H](C)O1` [DOXORUBICIN], the IC50 turned out to be 0.012 µM in the data set on SK-OV-3 and 0.001 µM in the data set on SK-MEL-2.
On to `COc1cc(/C=C/C(=O)OC[C@H]2O[C@@](CO)(O[C@H]3O[C@H](COC(=O)/C=C/c4cc(OC)c(O)c(OC)c4)[C@@H](O)[C@H](O)[C@H]3O)[C@@H](OC(=O)/C=C/c3cc(OC)c(O)c(OC)c3)[C@@H]2O)cc(OC)c1O`, for which the IC50 in the data set with BV-2 is 21.6 µM; with A549, 20.8 µM; in the data set with SK-OV-3, 6.71 µM; in the data set with SK-MEL-2, 9.5 µM; in the data set on HCT-15 it was 12.4 µM; in [2], 44.59 µg/mL (≈ 46.4 µM). The Activity result in data set [1] is reported as “Non-toxic”.
